# Reference: patent US20250074891A1 (Anaxis Pharma Pty Ltd., priority 2021, published 2025)
# Legend:
# MLKL (full length) = MLKL (full length) (Homo sapiens (Human), UniProt Q8NB16); assay: KINOMEscan binding assay, MLKL (full length); conditions: Table 36
# Experimental: Kinase assays. For most assays, kinase-tagged T7 phage strains were grown in parallel in 24-well blocks in an E. coli host derived from the BL21 strain. E. coli were grown to log-phase and infected with T7 phage from a frozen stock (multiplicity of infection=0.4) and incubated with shaking at 32° C. until lysis (90-150 minutes).
# The Hill Slope was set to −1.
# endogenous MLKL in U937 = endogenous MLKL in U937 (Homo sapiens (Human), UniProt Q8NB16); assay: Degradation assay: degradation of endogenous MLKL in human cells (Western blot); conditions: 24 h incubation, read-out: Degradation of endogenous MLKL in U937 (DC50 cell-based assay in μM)
# Sequence of endogenous MLKL in U937 (Q8NB16 whole entry): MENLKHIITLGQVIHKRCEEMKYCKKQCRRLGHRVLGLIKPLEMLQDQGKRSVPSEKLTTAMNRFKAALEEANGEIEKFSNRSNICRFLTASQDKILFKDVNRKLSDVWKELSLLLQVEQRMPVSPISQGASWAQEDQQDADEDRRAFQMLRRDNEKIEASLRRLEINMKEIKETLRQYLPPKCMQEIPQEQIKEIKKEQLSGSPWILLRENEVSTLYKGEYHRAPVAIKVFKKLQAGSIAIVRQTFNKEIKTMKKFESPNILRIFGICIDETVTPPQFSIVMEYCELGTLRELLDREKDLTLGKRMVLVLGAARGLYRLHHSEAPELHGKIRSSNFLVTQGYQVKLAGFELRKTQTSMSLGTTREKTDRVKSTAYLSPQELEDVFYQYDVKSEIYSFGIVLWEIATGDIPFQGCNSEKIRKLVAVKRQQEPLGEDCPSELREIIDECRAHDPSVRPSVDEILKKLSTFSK
# Experimental: DEGRADATION ASSAY: Screening Compounds Procedure to Evaluate the Activity of Compounds in Degrading Endogenous MLKL in Human Cell
# The human monocyte cell line (U937) was seeded on the day of the experiment in a 24-well plate at a cell density of 5*10^5 cells per well in a volume of 0.5 mL per well.
# The compound was diluted in DMSO with a starting concentration of 10 mM and titrated stepwise with a dilution of 1:5. 0.5 μL of the compound dilution was added to the appropriate well to achieve a final concentration of 10; 2; 0.4; 0.08 and 0.016 μM. A DMSO only well was included as control.
# The cells were incubated for 24 h in the presence of the compound at 37° C. and 10% CO2.
# After the 24 h incubation period, the medium was removed and cells washed with 0.5 mL PBS. The cells were then lysed directly in 60 μL of 1×SDS gel loading buffer.
# The cell lysate was heat-denatured at […] for 10 min. 10 μL of lysate per well were run on 18-well 4-15% Criterion TGX stain free gels (BIO-RAD). The proteins were then transferred onto nitrocellulose membrane with a wet transfer protocol in the Criterion Blotter (BIO-RAD).
# Membranes were blocked with 5% skim milk in TBST. Primary antibody against MLKL (clone 3H1, MABC604 Merck) was used at 1:2000 dilution in TBST with 1% BSA and left shaking over night at 4° C. After washes with TBST, the membranes were incubated with goat anti-rat IgG HRP-conjugated antibody (Southern Biotech) in 1% skim milk TBST at 1:10000 dilution for 1 h at room temperature. After TBST washes the bands were imaged on the ChemiDoc MP Imaging Systm (BIO-RAD) with Immobilion Western Chemiluminescent HRP Substrate Forte (Millipore). The loading control GAPDH was probed for with rabbit anti-GAPDH (CST 14C10) at 1:2000 dilution in 1% BSA TBST over night at 4° C. TBST washes were followed by incubation with goat anti-rabbit IgG HRP-conjugated antibody (Southern Biotech) in 1% skim milk TBST at 1:10000 dilution for 1 h at room temperature followed by TBST washes. The signal was detected as described above.
# The band intensity was measured in the ImageLab Software (BIO-RAD) and the MLKL values adjusted for loading with GAPDH. The percentage of degradation was calculated by normalizing the compound treated values to the DMSO only control.
# [1] = tested on: U937 human histiocytic leukemia cell line; assay: Cellular assay: inhibition of TSQ induced necroptosis (CellTitre-Glo); conditions: Homo sapiens, U-937; U937 cells, TSQ cocktail, 48 hours, Table 38; read-out: Inhibition of TSQ-induced necroptosis (IC50 cell-based assay)
# Summary of the method: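 U937 cells (20,000/well) pre-dosed with compound (10-point, 1:3 from 36 μM, 0.3% DMSO), then TSQ (hTNF-Fc 100 ng/ml, Smac mimetic 500 nM, Q-VD-OPh 10 μM) for 48 h at 37 °C. Viability by CellTiter-Glo luminescence, normalised to DMSO (100%) and DMSO+TSQ (0%); IC50 from 4-parameter fit.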
# U937 cells = assay: Counter screen: cell viability without TSQ cocktail (off-target effect); parameters: species or system human; conditions: Homo sapiens, U-937, Table 38, read-out: Off-target effect (IC50 cell-based assay)
# Experimental: Counter screen: In parallel, all compounds were tested for their ability to affect cell viability. The same U937 cells were treated with compound in DMSO without the TSQ cocktail. This counter screen enabled evaluation of off-target effects. In this case, cell viability was measured by CelltiterGlo.
# Sequence of MLKL (full length) (Q8NB16 whole entry): as above
Structure (SMILES),Kd (MLKL (full length)),DC50 (endogenous MLKL in U937),IC50 [1],IC50 (U937 cells)
"CCS(=O)(=O)Nc1ccc(-c2n[nH]c(Nc3ccc(C(=O)OCCCCC(=O)N[C@H](C(=O)N4C[C@H](O)C[C@H]4C(=O)NCc4ccc(-c5scnc5C)cc4)C(C)(C)C)cn3)c2C(N)=O)cc1O[C@@H](C)c1ccc(F)cc1 [Compound 1039, 4-{[(2S)-1-[(2S,4R)-4-hydroxy-2-({[4-(4-methyl-1,3-thiazol-5-yl)phenyl]methyl}carbamoyl)pyrrolidin-1-yl]-3,3-dimethyl-1-oxobutan-2-yl]carbamoyl}butyl 6-[(4-carbamoyl-3-{4-ethanesulfonamido-3-[(1S)-1-(4-fluorophenyl)ethoxy]phenyl}-1H-pyrazol-5-yl)amino]pyridine-3-carboxylate]",10 to 1000 nM,< 1 µM,< 1000 nM,> 10000 nM
"Cc1ncsc1-c1ccc(CNC(=O)[C@@H]2C[C@@H](O)CN2C(=O)[C@@H](NC(=O)CCCCCCn2ccc(Nc3[nH]nc(-c4ccc(NS(=O)(=O)C(F)F)c(O[C@@H](C)c5ccc(F)cc5)c4)c3C(N)=O)n2)C(C)(C)C)cc1 [Compound 1040, 3-[4-(difluoromethanesulfonamido)-3-[(1S)-1-(4-fluorophenyl)ethoxy]phenyl]-5-{[1-(6-{[(2S)-1-[(2S,4R)-4-hydroxy-2-({[4-(4-methyl-1,3-thiazol-5-yl)phenyl]methyl}carbamoyl)pyrrolidin-1-yl]-3,3-dimethyl-1-oxobutan-2-yl]carbamoyl}hexyl)-1H-pyrazol-3-yl]amino}-1H-pyrazole-4-carboxamide]",< 10 nM,1 to 10 µM,< 1000 nM,> 10000 nM
"CCS(=O)(=O)Nc1ccc(-c2n[nH]c(Nc3ccc(C(=O)OCC(=O)N[C@H](C(=O)N4C[C@H](O)C[C@H]4C(=O)NCc4ccc(-c5scnc5C)cc4)C(C)(C)C)cn3)c2C(N)=O)cc1O[C@@H](C)c1ccc(F)cc1 [Compound 1041, {[(2S)-1-[(2S,4R)-4-hydroxy-2-({[4-(4-methyl-1,3-thiazol-5-yl)phenyl]methyl}carbamoyl)pyrrolidin-1-yl]-3,3-dimethyl-1-oxobutan-2-yl]carbamoyl}methyl 6-[(4-carbamoyl-3-{4-ethanesulfonamido-3-[(1S)-1-(4-fluorophenyl)ethoxy]phenyl}-1H-pyrazol-5-yl)amino]pyridine-3-carboxylate]",< 10 nM,< 1 µM,< 1000 nM,> 10000 nM
"Cc1ncsc1-c1ccc(CNC(=O)[C@@H]2C[C@@H](O)CN2C(=O)[C@@H](NC(=O)CCCCCCCn2ccc(Nc3[nH]nc(-c4ccc(NS(=O)(=O)C(F)F)c(O[C@@H](C)c5ccc(F)cc5)c4)c3C(N)=O)n2)C(C)(C)C)cc1 [Compound 1042, 3-[4-(difluoromethanesulfonamido)-3-[(1S)-1-(4-fluorophenyl)ethoxy]phenyl]-5-{[1-(7-{[(2S)-1-[(2S,4R)-4-hydroxy-2-({[4-(4-methyl-1,3-thiazol-5-yl)phenyl]methyl}carbamoyl)pyrrolidin-1-yl]-3,3-dimethyl-1-oxobutan-2-yl]carbamoyl}heptyl)-1H-pyrazol-3-yl]amino}-1H-pyrazole-4-carboxamide]",< 10 nM,1 to 10 µM,< 1000 nM,1000 to 10000 nM
"CCS(=O)(=O)Nc1ccc(-c2n[nH]c(Nc3ccc(C(=O)OCCCC(=O)N[C@H](C(=O)N4C[C@H](O)C[C@H]4C(=O)NCc4ccc(-c5scnc5C)cc4)C(C)(C)C)cn3)c2C(N)=O)cc1O[C@@H](C)c1ccc(F)cc1 [Compound 1043, 3-{[(2S)-1-[(2S,4R)-4-hydroxy-2-({[4-(4-methyl-1,3-thiazol-5-yl)phenyl]methyl}carbamoyl)pyrrolidin-1-yl]-3,3-dimethyl-1-oxobutan-2-yl]carbamoyl}propyl 6-[(4-carbamoyl-3-{4-ethanesulfonamido-3-[(1S)-1-(4-fluorophenyl)ethoxy]phenyl}-1H-pyrazol-5-yl)amino]pyridine-3-carboxylate]",< 10 nM,< 1 µM,< 1000 nM,> 10000 nM
"Cc1ncsc1-c1ccc(CNC(=O)[C@@H]2C[C@@H](O)CN2C(=O)[C@@H](NC(=O)c2ccc(Cn3ccc(Nc4[nH]nc(-c5ccc(NS(=O)(=O)C(F)F)c(O[C@@H](C)c6ccc(F)cc6)c5)c4C(N)=O)n3)cc2)C(C)(C)C)cc1 [Compound 1045, 3-[4-(difluoromethanesulfonamido)-3-[(1S)-1-(4-fluorophenyl)ethoxy]phenyl]-5-({1-[(4-{[(2S)-1-[(2S,4R)-4-hydroxy-2-({[4-(4-methyl-1,3-thiazol-5-yl)phenyl]methyl}carbamoyl)pyrrolidin-1-yl]-3,3-dimethyl-1-oxobutan-2-yl]carbamoyl}phenyl)methyl]-1H-pyrazol-3-yl}amino)-1H-pyrazole-4-carboxamide]",< 10 nM,< 1 µM,< 1000 nM,> 10000 nM
"Cc1ncsc1-c1ccc(CNC(=O)[C@@H]2C[C@@H](O)CN2C(=O)[C@@H](NC(=O)CCCCCOc2ccc(Nc3[nH]nc(-c4ccc(NS(=O)(=O)C(F)F)c(O[C@@H](C)c5ccc(F)cc5)c4)c3C(N)=O)nc2)C(C)(C)C)cc1 [Compound 1048, 3-[4-(difluoromethanesulfonamido)-3-[(1S)-1-(4-fluorophenyl)ethoxy]phenyl]-5-({5-[(5-{[(2S)-1-[(2S,4R)-4-hydroxy-2-({[4-(4-methyl-1,3-thiazol-5-yl)phenyl]methyl}carbamoyl)pyrrolidin-1-yl]-3,3-dimethyl-1-oxobutan-2-yl]carbamoyl}pentyl)oxy]pyridin-2-yl}amino)-1H-pyrazole-4-carboxamide]",< 10 nM,< 1 µM,< 1000 nM,> 10000 nM
"Cc1ncsc1-c1ccc(CNC(=O)[C@@H]2C[C@@H](O)CN2C(=O)[C@@H](NC(=O)CN2CCC(Oc3ccc(Nc4[nH]nc(-c5ccc(NS(=O)(=O)C(F)F)c(O[C@@H](C)c6ccc(F)cc6)c5)c4C(N)=O)nc3)CC2)C(C)(C)C)cc1 [Compound 1050, 3-[4-(difluoromethanesulfonamido)-3-[(1S)-1-(4-fluorophenyl)ethoxy]phenyl]-5-[(5-{[1-({[(2S)-1-[(2S,4R)-4-hydroxy-2-({[4-(4-methyl-1,3-thiazol-5-yl)phenyl]methyl}carbamoyl)pyrrolidin-1-yl]-3,3-dimethyl-1-oxobutan-2-yl]carbamoyl}methyl)piperidin-4-yl]oxy}pyridin-2-yl)amino]-1H-pyrazole-4-carboxamide]",10 to 1000 nM,< 1 µM,1000 to 10000 nM,> 10000 nM
"Cc1ncsc1-c1ccc(CNC(=O)[C@@H]2C[C@@H](O)CN2C(=O)[C@@H](NC(=O)CCCCOC(=O)c2ccc(Nc3[nH]nc(-c4ccc(NS(=O)(=O)C(F)F)c(O[C@@H](C)c5ccc(F)cc5)c4)c3C(N)=O)nc2)C(C)(C)C)cc1 [Compound 1051, 4-{[(2S)-1-[(2S,4R)-4-hydroxy-2-({[4-(4-methyl-1,3-thiazol-5-yl)phenyl]methyl}carbamoyl)pyrrolidin-1-yl]-3,3-dimethyl-1-oxobutan-2-yl]carbamoyl}butyl 6-({4-carbamoyl-3-[4-(difluoromethanesulfonamido)-3-[(1S)-1-(4-fluorophenyl)ethoxy]phenyl]-1H-pyrazol-5-yl}amino)pyridine-3-carboxylate]",10 to 1000 nM,1 to 10 µM,1000 to 10000 nM,> 10000 nM
Cc1ncsc1-c1ccc(CNC(=O)[C@@H]2C[C@@H](O)CN2C(=O)[C@@H](NC(=O)CCCCOC(=O)c2ccc(Nc3[nH]nc(-c4ccc(NS(=O)(=O)C(F)F)c(F)c4)c3C(N)=O)nc2)C(C)(C)C)cc1 [Compound 1053],< 10 nM,1 to 10 µM,1000 to 10000 nM,> 10000 nM
